# Earlier results in patent US6503927B1, “Amorphous paroxetine composition” (Pentech Pharmaceuticals, Inc., priority 1999, dated 2003).
# Counter-ions that a name gives are not always drawn.
# Conditions: reported in U.S. Pat. No. 4,721,723 (Barnes et al.) and U.S. Pat. No. 5,672,612 (Ronsen et al.)
smiles,measurement,value
"Fc1ccc([C@@H]2CCNC[C@H]2COc2ccc3c(c2)OCO3)cc1 [amorphous, paroxetine hydrochloride, paroxetine hydrochloride]",hygroscopicity of the solid,undesirably hygroscopic
